Assay results as given in patent US20040106135A1, “Assay for PPAR ligand dependent gene modulation” (priority 2002, published 2004).

How the values were obtained:
[1] = test system: hamster PDK-4 mRNA in kidney; test: PDK-4 mRNA induction in kidney of fat-fed hamsters; type: in vivo; details: single dose (GW9578 3 mg/kg, fenofibrate 100 mg/kg, gemfibrozil 500 mg/kg), 16 hours
Description: (§1) FIG. 4B is a bar graphs depicting the induction of PDK-4 mRNA in hamster kidney by PPARα ligands. […] After 16 hours, the tissues were harvested, total RNA isolated and levels of hamster PDK-4 mRNA were detected by RT-PCR. The values are normalized to 18S rRNA levels. The mean and SEM of three individual animals are shown.
(§2) PDK-4 plays a critical role in regulating glucose metabolism by phosphorylating and inactivating the pyruvate dehydrogenase complex in response to increased fatty acid oxidation. […] To investigate the response of PDK-4 to fibrate treatment in vivo, in another aspect of the present invention the fat-fed hamster model was employed, which closely mimics the serum lipid profiles of humans than other rodent models (Sullivan et al., (1993) Lab. Anim. Sci. 43:575-578). […] These doses were previously shown to yield maximal effects on blood triglycerides in hamster. […] In hamster kidney, the basal levels of PDK-4 mRNA were approximately 10-fold higher than in the liver (FIG. 4B). […] Fibrates are effective treatments for lowering serum triglyceride levels. To verify that the doses used in this study were efficacious, blood triglyceride levels were monitored over a 48 hour time course.
(§3) Real-time PCR: Fluorescence-based real-time PCR was performed essentially as described (Abbaszade et al., (1999) J. Biol. Chem. 274:23443-23450). […] Taqman-based real-time PCR expression profiling was performed using 25 ng of each cDNA according to the manufacturer's (PE Biosystems) instructions with fluorescence being monitored in real-time with an ABI Prism 7700 (PE Biosystems). Relative expression levels were determined essentially as described (Gibson et al., (1996) Genome Res. 6:995-1001) using standard curves for each transcript. Relative abundance was then determined from these standard curves, subtracting mRNA levels obtained from negative control reactions performed in the absence of reverse transcriptase, and normalized to 18S rRNA levels. […]

[2] = Serum triglyceride levels in fat-fed hamsters; type: in vivo, hamster; details: for Serum triglyceride levels, 48 h / Serum triglyceride levels, 8 h / Serum triglyceride levels, 16 h: single dose, mean +/- SEM, 3 animals; for Serum triglyceride levels, 48 h: control 208.67; for Serum triglyceride levels, 8 h: control 261.33; for Serum triglyceride levels, 16 h: control 308.00
Description: Blood was sampled at 8, 16 and 48 hours following a single drug treatment for total triglyceride analysis. The mean levels (+/−SEM) for 3 animals per group are shown. The “*” indicates a statistically significant difference with respect to control (p<0.01) by Student's t-test. Animal studies: All procedures performed in this study were approved by the Animal Care and Use committee, and conform to the guide for the Care and Use of Laboratory Animals Act. Male Syrian Golden hamsters (Charles River, Wilmington Mass.) weighing 120-140 g, were used in the study. Animals were kept on a 12-hour light/dark cycle and allowed free access to normal chow and water. The animals were divided into groups according to weight, and fed either an high fat diet (0.5% cholesterol, 5% coconut oil) (N=3) or normal chow diet (N=3). […] At intervals of 0, 8, 16 and 48 hr animals were anesthetized with CO2. Blood was collected by cardiac puncture into EDTA containing tubes; plasma was isolated for immediate analysis of triglycerides by the Dade Clinical Analyser®. Animals were then euthanized with CO2. The liver and kidneys were collected, flash frozen in liquid nitrogen and stored at −80° C. for future gene expression analysis.

[3] = test system: hamster PDK-4 mRNA in liver; test: PDK-4 mRNA induction in liver of fat-fed hamsters; type: in vivo; details: single dose (GW9578 3 mg/kg, fenofibrate 100 mg/kg, gemfibrozil 500 mg/kg), 16 hour post-treatment
Description: as §1, with “4A” for “4B”, “graph” for “graphs”, “liver” for “kidney”
as §2, §3

GAL4-hPPARα = target: T1, GAL4-hPPARα (Homo sapiens, UniProt Q07869); test: Transactivation assay, GAL4-hPPARα chimera with luciferase reporter; type: cell-based; details: HEK293 cell line with GAL4 UAS-Luciferase reporter; read-out: EC50 (μM) in Transactivation Assay (GAL4-hPPARα), Present Disclosure
T1 construct: other: HEK293 cell line with GAL4 UAS-Luciferase
T1 sequence (Q07869 200-468 limits assumed): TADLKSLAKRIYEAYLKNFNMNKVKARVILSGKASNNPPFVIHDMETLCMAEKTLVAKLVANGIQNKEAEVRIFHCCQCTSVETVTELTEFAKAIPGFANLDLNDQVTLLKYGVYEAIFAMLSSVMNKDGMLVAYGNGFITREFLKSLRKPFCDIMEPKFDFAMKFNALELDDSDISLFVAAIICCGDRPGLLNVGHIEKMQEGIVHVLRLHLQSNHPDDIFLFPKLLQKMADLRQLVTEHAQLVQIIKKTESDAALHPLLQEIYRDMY
Description: (§4) EC50 values were determined for PDK-4 mRNA induction by quantitative PCR under conditions used to generate the data shown in FIG. 2. EC50 values in the transactivation assays were determined by transfection of an expression plasmid encoding a GAL4-hPPARα chimera into cells co-expressing a luciferase reporter gene under the transcriptional control of GAL4 upstream activating elements.
Transcriptional activation assay: Cell based transcriptional activation assays using a GAL4-hPPARa expression plasmid and an HEK293 cell line stably integrated with a GAL4 UAS-Luciferase reporter gene was performed exactly as described previously (Mukherjee et al., (2002) J. Steroid Biochem. Mol. Biol. 1712:1-9).

[4] = test system: PDK-4 mRNA in HK-2 cells (endogenous PPARα); test: PDK-4 mRNA induction in HK-2 cells (real-time RT-PCR); type: cell-based, human; details: 24 hours; for EC50: Homo sapiens, HK-2, PDK-4 mRNA induction by quantitative PCR, normalized to 18S rRNA, read-out: EC50 (μM) in HK-2 (PDK-4)
Description: (§5) Values were normalized to 18S rRNA levels.
as §4
(§6) Cell culture: The following cell lines were obtained from American Type Culture Collection (ATCC) and cultured in the recommended medium for each cell type: HepG2, HK-2, Caki-1, LNCaP (CloneFGC), SW872, and ACHN. PPARα compounds were prepared to a 500× stock in DMSO; corresponding control cells received an equal volume of vehicle (0.2% v/v).
Real-time PCR: Fluorescence-based real-time PCR was performed essentially as described (Abbaszade et al., (1999) J. Biol. Chem. 274:23443-23450). Primers and probes designed from the hamster pyruvate dehydrogenase kinase 4 (PDK4) sequence (Genbank Accession No. AF321218), human pyruvate dehydrogenase kinase 4 (PDK-4) sequence (Genbank Accession No. NM_002612) and human adipose differentiation-related protein (ADFP) sequence (Genbank Accession No. NM_001122) were synthesized and purified by Biosearch Technologies. Probes for ADFP and PDK-4 were modified at the 5′ end with the reporter dye 6-FAM, and at the 3′ end with the quencher dye Black Hole Quencher 1 (Biosearch Technologies). Probes detecting rat 18S rRNA were modified at the 5′ end with VIC and at the 3′ end with TAMRA (Biosearch Technologies). For detection of hamster PDK4, primers 5′-[…] (SEQ ID NO:2), 5′[…] (SEQ ID NO:3), and probe 5′-[…] (SEQ ID NO:4) were used. For detection of human PDK4, primers 5′-[…] (SEQ ID NO:5), 5′-[…] (SEQ ID NO:6), and probe 5′-[…] (SEQ ID NO:7) were used. For detection of human ADFP, primers 5′-[…] (SEQ ID NO:8), 5′-[…] (SEQ ID NO:9), and probe 5′-[…] (SEQ ID NO: 10) were used. For detection of 18s rRNA, primers 5′-[…] (SEQ ID NO:11), 5′-[…] (SEQ ID NO:12), and probe 5′-[…] (SEQ ID NO:13) were used. Template cDNA was generated using the Advantage RT-PCR kit according to the manufacturer's (Clontech) instructions using random hexamers and 1 μg of DNaseI-treated total RNA. Taqman-based real-time PCR expression profiling was performed using 25 ng of each cDNA according to the manufacturer's (PE Biosystems) instructions with fluorescence being monitored in real-time with an ABI Prism 7700 (PE Biosystems). Relative expression levels were determined essentially as described (Gibson et al., (1996) Genome Res. 6:995-1001) using standard curves for each transcript. Relative abundance was then determined from these standard curves, subtracting mRNA levels obtained from negative control reactions performed in the absence of reverse transcriptase, and normalized to 18S rRNA levels. All expression measurements were performed in duplicate in two independent assays, generating a total of four measurements per cDNA.

PDK-4 [5] = details: Way et al. (2001); cited from earlier work
[6] = test system: PDK4 mRNA in HEK293 cells; test: PDK4 mRNA induction in HEK293 cells by PPAR modulators (Taqman PCR); type: cell-based, human; details: 4 hours; 100 micromolar fenofibric acid, 10 micromolar rosiglitazone, 10 micromolar GW501516; relative to CYCD1 mRNA
Description: HEK293 cells were treated for 4 hours with the following PPAR modulators:
100 micromolar fenofibric acid (a PPARα selective modulator), 10 micromolar rosiglitazone (a PPARγ selective modulator) and 10 micromolar GW501516 (a PPARβ(δ) selective modulator; Oliver et al., (2001) Proc. Natl. Acad. Sci. U.S.A. 98:5306-11). PDK4 mRNA was measured by Taqman PCR analysis. The PDK4 expression levels are expressed relative to CYCD1 mRNA used as a normalization control.

hamster PPARα = test: Hamster PPARα transactivation assay; type: cell-based
[7] = test system: ADRP mRNA in HK-2 cells (endogenous PPARα); test: ADRP mRNA induction in HK-2 cells (real-time RT-PCR); type: cell-based, human; details: highest dose tested 300 μM
Description: as §5, §6, §3

PDK-4 [8] = details: Wu et al. (1999); abrogated in PPARα-/- mice; cited from earlier work

With `CC(C)OC(=O)C(C)(C)Oc1ccc(C(=O)c2ccc(Cl)cc2)cc1` [Fenofibrate, fenofibrate] the “Induction of PDK-4 mRNA in kidney” value [1] was 11 fold, the “Serum triglyceride levels, 48 h” value [2] was 146.33 + 17.15 and the “Serum triglyceride levels, 8 h” value [2] was 229.00 + 38.52. For the same compound, the “Serum triglyceride levels, 16 h” value [2] was 231.67 + 63.22 and the “Induction of PDK-4 mRNA levels in the liver” value [3] was 14 fold.
In the case of `CC(C)(Oc1ccc(C(=O)c2ccc(Cl)cc2)cc1)C(=O)O` [Fenofibric Acid, fenofibric acid], the EC50 (GAL4-hPPARα) is reported as 80 µM and the EC50 [4] is reported as 10 µM.
In the case of `CN(CCOc1ccc(C[C@H](Nc2ccccc2C(=O)c2ccccc2)C(=O)O)cc1)c1ccccn1` [GW1929], the “PDK-4 levels in the skeletal muscle of rats” value (PDK-4 [5]) is listed as “decrease PDK-4 levels”.
With `Cc1cc(SCc2sc(-c3ccc(C(F)(F)F)cc3)nc2C)ccc1OCC(=O)O` [GW501516] the “PDK4 mRNA induction in HEK293 cells” value [6] was “induced”.
With `Cc1ccc(C)c(OCCCC(C)(C)C(=O)O)c1` [Gemfibrozil] the EC50 (GAL4-hPPARα) was 60 µM, the “Induction of PDK-4 mRNA in kidney” value [1] was “no effect” and the “Activity in hamster PPARα transactivation assay” value (hamster PPARα) was “lowest activity”. For the same compound, the “Change of triglyceride levels compared with the control group” value ([2]; single dose, 8, 16 and 48 hours) was “neither gemfibrozil nor fenofibrate altered triglyceride levels to a statistically significant degree”, the “Serum triglyceride levels, 48 h” value [2] was 206.33 + 65.30 and the “Serum triglyceride levels, 8 h” value [2] was 334.33 + 82.42. The “Serum triglyceride levels, 16 h” value [2] was 325.67 + 46.77, the “Induction of PDK-4 mRNA levels in the liver” value [3] was “least effect” and the “Saturation of ADRP induction” value [7] was “did not appear to saturate”. The “Efficacy of PDK-4 induction compared with GW9578” value ([4]; HK-2 cells, maximal induction by GW9578 = 100%) was “lower efficacy than GW9578” and the EC50 [4] was 27 µM.
In the case of `Cc1cccc(Nc2cc(Cl)nc(SCC(=O)O)n2)c1C` [WY-14, 643], the “PDK-4 induction in rodent tissues in vivo” value (PDK-4 [8]) is given as “PDK-4 induction was observed”.
